From PubChem BioAssay AID256 (DTP/NCI, 2004)
Several values for one entry are separate records, joined by “and”; a condition that tells them apart may be missing. Identical values can stand only once. Inconclusive results and toxic doses are left out.

System: CD2F1 mice, L1210 leukemia ip, survival T/C
Assay: NCI In Vivo Anticancer Drug Screen. Data for tumor model L1210 Leukemia (intraperitoneal) in CD2F1 (CDF1) mice
Conditions: higher = longer survival
Method in brief: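 Read-out first: treated-group measurement over vehicle-control measurement, expressed as a ratio. Animals bore a transplanted tumor line and were dosed with compound or vehicle.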

[1] = endpoint: mean survival time, dose: 12.5 mg/kg/injection, schedule: Q01DX009 (ip), vehicle: water
[2] = endpoint: mean survival time, dose: 25.0 mg/kg/injection, schedule: Q01DX009 (ip), vehicle: water
[3] = endpoint: mean survival time, dose: 50.0 mg/kg/injection, schedule: Q01DX009 (ip), vehicle: water
[4] = endpoint: mean survival time, dose: 100.0 mg/kg/injection, schedule: Q01DX009 (ip), vehicle: water
[5] = endpoint: mean survival time, dose: 200.0 mg/kg/injection, schedule: Q01DX009 (ip), vehicle: water
[6] = endpoint: mean survival time, dose: 50.0 mg/kg/injection, schedule: Q01DX009 (ip), vehicle: saline with Tween-80
[7] = endpoint: mean survival time, dose: 100.0 mg/kg/injection, schedule: Q01DX009 (ip), vehicle: saline with Tween-80
[8] = endpoint: mean survival time, dose: 200.0 mg/kg/injection, schedule: Q01DX009 (ip), vehicle: saline with Tween-80
[9] = endpoint: mean survival time, dose: 100.0 mg/kg/injection, schedule: Q01DX001 (ip), vehicle: saline with Tween-80
[10] = endpoint: mean survival time, dose: 200.0 mg/kg/injection, schedule: Q01DX001 (ip), vehicle: saline with Tween-80
[11] = endpoint: mean survival time, dose: 400.0 mg/kg/injection, schedule: Q01DX001 (ip), vehicle: saline with Tween-80
[12] = endpoint: mean survival time, dose: 12.5 mg/kg/injection, schedule: Q04DX003 (ip), vehicle: saline with Tween-80
[13] = endpoint: mean survival time, dose: 25.0 mg/kg/injection, schedule: Q04DX003 (ip), vehicle: saline with Tween-80
[14] = endpoint: mean survival time, dose: 100.0 mg/kg/injection, schedule: Q04DX003 (ip), vehicle: saline with Tween-80
[15] = endpoint: mean survival time, dose: 100.0 mg/kg/injection, schedule: Q04DX003 (ip), vehicle: saline
[16] = endpoint: mean survival time, dose: 200.0 mg/kg/injection, schedule: Q04DX003 (ip), vehicle: saline
[17] = endpoint: mean survival time, dose: 400.0 mg/kg/injection, schedule: Q01DX009 (ip), vehicle: saline with Tween-80
[18] = endpoint: mean survival time, dose: 400.0 mg/kg/injection, schedule: Q04DX003 (ip), vehicle: saline
[19] = endpoint: mean survival time, dose: 200.0 mg/kg/injection, schedule: Q04DX003 (ip), vehicle: saline with Tween-80
[20] = endpoint: mean survival time, dose: 400.0 mg/kg/injection, schedule: Q04DX003 (ip), vehicle: saline with Tween-80
[21] = endpoint: mean survival time, dose: 12.5 mg/kg/injection, schedule: Q01DX009 (ip), vehicle: Klucel (hydroxypropylcellulose) (HPC)
[22] = endpoint: mean survival time, dose: 25.0 mg/kg/injection, schedule: Q01DX009 (ip), vehicle: Klucel (hydroxypropylcellulose) (HPC)

Nc1nc(N)c(NC=O)c(N)n1
T/C [1]: 101 % of control | T/C [2]: 101 % of control | T/C [3]: 106 % of control | T/C [4]: 103 % of control | T/C [5]: 103 % of control

CC(=O)C1=C(O)C2(O)C(=O)c3c(c(C)c4ccc(C)c(O)c4c3O)CC2C(N)C1=O (configuration not stated)
T/C (endpoint: mean survival time, dose: 3.75 mg/kg/injection, schedule: Q01DX009 (ip), vehicle: saline + alcohol): 102 % of control and 105 % of control | T/C (endpoint: mean survival time, dose: 7.3 mg/kg/injection, schedule: Q01DX009 (ip), vehicle: saline + alcohol): 103 % of control | T/C (endpoint: mean survival time, dose: 7.5 mg/kg/injection, schedule: Q01DX009 (ip), vehicle: saline + alcohol): 107 % of control | T/C (endpoint: mean survival time, dose: 15.0 mg/kg/injection, schedule: Q01DX009 (ip), vehicle: saline + alcohol): 107 % of control and 108 % of control | T/C (endpoint: mean survival time, dose: 30.0 mg/kg/injection, schedule: Q01DX009 (ip), vehicle: saline + alcohol): 115 % of control | T/C (endpoint: mean survival time, dose: 60.0 mg/kg/injection, schedule: Q01DX009 (ip), vehicle: saline + alcohol): 107 % of control and 111 % of control

COc1cc(OC)c(NC(=O)Oc2ccccc2F)cc1Cl
T/C [6]: 92 % of control | T/C [7]: 100 % of control | T/C [8]: 100 % of control

OC1CCC2CCC1C2 (configuration not stated)
T/C [9]: 102 % of control | T/C [10]: 104 % of control | T/C [11]: 101 % of control

CCSc1ncnc2c1ncn2C1OC(CO)C(O)C1O (configuration not stated)
T/C (endpoint: mean survival time, dose: 132.0 mg/kg/injection, schedule: Q04DX003 (ip), vehicle: saline with Tween-80): 122 % of control | T/C [8]: 171 % of control

O=[N+]([O-])c1cc([N+](=O)[O-])c(Cl)s1
T/C [12]: 92 % of control | T/C [13]: 91 % of control | T/C (endpoint: mean survival time, dose: 50.0 mg/kg/injection, schedule: Q04DX003 (ip), vehicle: saline with Tween-80): 88 % of control

CC(=O)c1cc2c(cc1C(C)C)CC[C@H]1[C@](C)(C#N)CCC[C@]21C
T/C (endpoint: mean survival time, dose: 25.0 mg/kg/injection, schedule: Q01DX009 (ip), vehicle: saline with Tween-80): 104 % of control | T/C [6]: 90 % of control | T/C [7]: 98 % of control | T/C [14]: 87 % of control

O=C(O)C(F)(F)F
T/C [7]: 100 % of control | T/C [15]: 102 % of control | T/C [8]: 103 % of control | T/C [16]: 96 % of control | T/C [17]: 100 % of control | T/C [18]: 102 % of control

NC(=O)CCC(N)C(=O)O.[Cl-].[Cl-].[Cl-].[Cl-].[Pt+2] (configuration not stated)
T/C [1]: 107 % of control | T/C [2]: 100 % of control | T/C (endpoint: mean survival time, dose: 25.0 mg/kg/injection, schedule: Q04DX003 (ip), vehicle: saline): 111 % of control | T/C (endpoint: mean survival time, dose: 50.0 mg/kg/injection, schedule: Q04DX003 (ip), vehicle: saline): 119 % of control

O=C(Nc1ccc(Cl)cc1[N+](=O)[O-])c1ccc2ccccc2c1O
T/C (endpoint: mean survival time, dose: 100.0 mg/kg/injection, schedule: Q01DX001 (ip), vehicle: Klucel (hydroxypropylcellulose) (HPC)): 100 % of control | T/C (endpoint: mean survival time, dose: 200.0 mg/kg/injection, schedule: Q01DX001 (ip), vehicle: Klucel (hydroxypropylcellulose) (HPC)): 105 % of control | T/C (endpoint: mean survival time, dose: 400.0 mg/kg/injection, schedule: Q01DX001 (ip), vehicle: Klucel (hydroxypropylcellulose) (HPC)): 100 % of control

NCC1C2CCC(C2)C1CCCNCCCC1C2CCC(C2)C1CN (configuration not stated)
T/C (endpoint: mean survival time, dose: 6.25 mg/kg/injection, schedule: Q04DX002 (ip), vehicle: saline with Tween-80): 98 % of control | T/C (endpoint: mean survival time, dose: 12.5 mg/kg/injection, schedule: Q04DX002 (ip), vehicle: saline with Tween-80): 107 % of control | T/C (endpoint: mean survival time, dose: 25.0 mg/kg/injection, schedule: Q04DX002 (ip), vehicle: saline with Tween-80): 114 % of control

Cc1ccoc1
T/C (endpoint: median survival time, dose: 8.3 mg/kg/injection, schedule: Q03HX015 (ip), vehicle: saline with Tween-80): 101 % of control | T/C (endpoint: median survival time, dose: 16.6 mg/kg/injection, schedule: Q03HX015 (ip), vehicle: saline with Tween-80): 103 % of control | T/C (endpoint: median survival time, dose: 33.3 mg/kg/injection, schedule: Q03HX015 (ip), vehicle: saline with Tween-80): 117 % of control | T/C (endpoint: median survival time, dose: 66.6 mg/kg/injection, schedule: Q03HX015 (ip), vehicle: saline with Tween-80): 124 % of control

CN(C)N=Nc1ccc(C(N)=O)cc1C(N)=O
T/C (endpoint: mean survival time, dose: 18.75 mg/kg/injection, schedule: Q01DX009 (ip), vehicle: Klucel (hydroxypropylcellulose) (HPC)): 115 % of control and 104 % of control | T/C (endpoint: mean survival time, dose: 37.5 mg/kg/injection, schedule: Q01DX009 (ip), vehicle: Klucel (hydroxypropylcellulose) (HPC)): 122 % of control and 112 % of control | T/C (endpoint: mean survival time, dose: 75.0 mg/kg/injection, schedule: Q01DX009 (ip), vehicle: Klucel (hydroxypropylcellulose) (HPC)): 123 % of control and 124 % of control

CC(C)(C)N[P+](Cc1ccccc1)(NC(C)(C)C)c1ccccc1
T/C [12]: 90 % of control | T/C [13]: 90 % of control

O=C(O)/C=C/SCCC(=O)O
T/C [14]: 93 % of control and 101 % of control | T/C [19]: 101 % of control and 94 % of control

CCCCCOc1ccc(Cl)cc1Cl
T/C (endpoint: mean survival time, dose: 100.0 mg/kg/injection, schedule: Q04DX002 (ip), vehicle: saline with Tween-80): 86 % of control | T/C (endpoint: mean survival time, dose: 200.0 mg/kg/injection, schedule: Q04DX002 (ip), vehicle: saline with Tween-80): 101 % of control | T/C (endpoint: mean survival time, dose: 400.0 mg/kg/injection, schedule: Q04DX002 (ip), vehicle: saline with Tween-80): 109 % of control

CCOC(=O)Cc1ccncc1CC
T/C [9]: 94 % of control | T/C [7]: 97 % of control | T/C [10]: 91 % of control | T/C [8]: 104 % of control | T/C [11]: 100 % of control | T/C [17]: 101 % of control

CC12CCC(O1)C1C(=O)NC(=O)C12 (configuration not stated)
T/C [14]: 94 % of control | T/C [19]: 89 % of control | T/C [20]: 98 % of control

CC(=O)OCC(OC(C)=O)C(OC(C)=O)C(OC(C)=O)C(COC(=O)c1ccccc1)OC(=O)c1ccccc1 (configuration not stated)
T/C [9]: 96 % of control | T/C [10]: 100 % of control | T/C [11]: 96 % of control

CN(Cc1ccccc1)C1CCC(C(=O)O)CC1 (configuration not stated)
T/C (endpoint: mean survival time, dose: 100.0 mg/kg/injection, schedule: Q01DX009 (ip), vehicle: saline): 107 % of control | T/C (endpoint: mean survival time, dose: 200.0 mg/kg/injection, schedule: Q01DX009 (ip), vehicle: saline): 107 % of control | T/C (endpoint: mean survival time, dose: 400.0 mg/kg/injection, schedule: Q01DX009 (ip), vehicle: saline): 100 % of control

CC1(C)C/C(=C\c2cc(O)ccc2[N+](=O)[O-])C(=O)c2ccccc21
T/C [7]: 97 % of control | T/C [14]: 101 % of control | T/C [8]: 94 % of control | T/C [19]: 106 % of control | T/C [17]: 97 % of control | T/C [20]: 103 % of control

CCCCC(CC)CO.[Ti] (configuration not stated)
T/C [6]: 103 % of control | T/C [7]: 106 % of control | T/C [8]: 97 % of control

CN(C)c1nnc(N(C)C)s1
T/C [14]: 100 % of control | T/C [19]: 98 % of control | T/C [20]: 98 % of control

CCCCC(N)C(=O)O (configuration not stated)
T/C [9]: 104 % of control | T/C [15]: 105 % of control | T/C [10]: 104 % of control | T/C [16]: 103 % of control | T/C [11]: 102 % of control | T/C [18]: 95 % of control

CN(C)CCN(C)CCN(C)CCN(C)C
T/C [15]: 95 % of control | T/C [16]: 97 % of control | T/C [18]: 108 % of control

Cc1sc2ccccc2[n+]1C
T/C [21]: 93 % of control | T/C [22]: 95 % of control | T/C (endpoint: mean survival time, dose: 50.0 mg/kg/injection, schedule: Q01DX009 (ip), vehicle: Klucel (hydroxypropylcellulose) (HPC)): 87 % of control

CSC(=S)NN=C(C)C
T/C (endpoint: mean survival time, dose: 6.25 mg/kg/injection, schedule: Q01DX009 (ip), vehicle: saline sonified): 89 % of control | T/C (endpoint: mean survival time, dose: 6.25 mg/kg/injection, schedule: Q04DX003 (ip), vehicle: saline with Tween-80): 96 % of control | T/C (endpoint: mean survival time, dose: 12.5 mg/kg/injection, schedule: Q01DX009 (ip), vehicle: saline sonified): 87 % of control | T/C [12]: 96 % of control

O=C(Nc1ccccc1)OC1CCCCC1OC(=O)Nc1ccccc1 (configuration not stated)
T/C [11]: 86 % of control

CC1=NC(c2ccccn2)=NNC(c2ccccn2)=C1c1ccccc1
T/C [1]: 98 % of control | T/C [2]: 96 % of control | T/C [3]: 98 % of control | T/C [4]: 86 % of control | T/C [5]: 90 % of control

O=C(Oc1c(Cl)c(Cl)c(Cl)c(Cl)c1Cl)c1ccc([N+](=O)[O-])cc1
T/C [7]: 101 % of control | T/C [8]: 97 % of control | T/C [17]: 95 % of control

CCOP(=O)(OCC)ON1C(=O)c2cccc3cccc(c23)C1=O
T/C (endpoint: mean survival time, dose: 3.12 mg/kg/injection, schedule: Q01DX009 (ip), vehicle: Klucel (hydroxypropylcellulose) (HPC)): 100 % of control | T/C (endpoint: mean survival time, dose: 6.25 mg/kg/injection, schedule: Q01DX009 (ip), vehicle: Klucel (hydroxypropylcellulose) (HPC)): 95 % of control | T/C [21]: 95 % of control | T/C [22]: 93 % of control
